In patent US4845121A, “Aci-reductone compounds belonging to the 6,7-disubstituted-3,4-dihydro benzopyan-2H-one class having antiaggregatory properties” (The Ohio State University Research Foundation, priority 1986, dated 1989):
Entries after “also recorded” stand apart in the source; their conditions may differ.

Legend:
[1] = system: human platelets (arachidonic acid-induced serotonin secretion); assay: Arachidonic acid-induced [14C]-serotonin secretion; type: cell-based; conditions: for IC50: Homo sapiens, Platelet, inhibitor 1 min before AA (0.2-1 mM), mean ± S.E.M., n = 3-9 donors
Description: (§1) The antiaggregatory action of the compounds of the present invention was determined using the following procedure: ADP and AA were obtained from Sigma Chemical Co., (St. Louis, MO). [^14 C]-Serotonin (57 mCi/mmol) and [^3 H]-AA (210 Ci/mmol) were supplied by Amersham (Arlington Heights, IL). U46619 (15S-hydroxy-11α,9α-epoxymethano-prosta-5z,13E-dienoic acid) was purchased from Upjohn Diagnostics (Kalamazoo, MI). Blood was collected from normal human volunteers who reported to be free of medication for at least 10 days prior to blood collection. Washed platelets were prepared and suspended in a modified Tyrode's solution, pH 7.4 as described in Navran, S. S., et al., Thromb. […] The platelet count was adjusted to 3×10^8 /ml for aggregation, secretion and biochemical studies.
(§2) Inhibitors were added one minute prior to induction of platelet activation. Secretion of the contests of platelet dense granules was measured by monitoring the release of radioactivity from platelets prelabeled with [^14 C]-serotonin. […] To study the release of AA from platelet phospholipids, washed platelets were incubated with [^3 H]-AA (3.6 mCi/10^9 platelets) for two hours at room temperature prior to the final centrifugation and resuspension of the washing procedure. Released [^3 H]-AA was quantified from supernatants of stimulated platelet samples in a manner identical to the determination of serotonin secretion.

[2] = system: human platelets (ADP-induced serotonin secretion); assay: ADP-induced [14C]-serotonin secretion; type: cell-based; conditions: Platelet, inhibitor 1 min before ADP (1-5 uM), mean ± S.E.M., n = 3-9 donors
Description: as §1
Inhibitors were added one minute prior to induction of platelet activation. Secretion of the contests of platelet dense granules was measured by monitoring the release of radioactivity from platelets prelabeled with [^14 C]-serotonin. […] Released [^3 H]-AA was quantified from supernatants of stimulated platelet samples in a manner identical to the determination of serotonin secretion.

[3] = system: human platelets (thrombin-induced [3H]-AA release); assay: Thrombin-induced [3H]-arachidonic acid release; type: cell-based; conditions: for IC50: Homo sapiens, Platelet, inhibitor 1 min before thrombin (0.5 U/ml), terminated at 4 min, 3-5 donors; for inhibition of AA release (in words): thrombin-induced AA release / release from platelet membrane phospholipids
Description: (§3) The antiaggregatory action of the compounds of the present invention was determined using the following procedure: ADP and AA were obtained from Sigma Chemical Co., (St. Louis, MO). [^14 C]-Serotonin (57 mCi/mmol) and [^3 H]-AA (210 Ci/mmol) were supplied by Amersham (Arlington Heights, IL). U46619 (15S-hydroxy-11α,9α-epoxymethano-prosta-5z,13E-dienoic acid) was purchased from Upjohn Diagnostics (Kalamazoo, MI). Blood was collected from normal human volunteers who reported to be free of medication for at least 10 days prior to blood collection. Washed platelets were prepared and suspended in a modified Tyrode's solution, pH 7.4 as described in Navran, S. S., et al., Thromb. Res., 33: 449-510 (1984). The platelet count was adjusted to 3×10^8 /ml for aggregation, secretion and biochemical studies.
Platelet aggregation studies were performed according to the turbidometric method of Born, as described in Nature, 194: 927-929 (1962), in a Payton Model 600 dual channel aggregometer interfaced to an Apple microcomputer for acquistion, quantitation, presentation, and management of platelet aggregation data, as described in Huzoor-Akbar, et al., 32 Thromb. Res., 335-341 (1983). Inhibitors were added one minute prior to induction of platelet activation. Secretion of the contests of platelet dense granules was measured by monitoring the release of radioactivity from platelets prelabeled with [^14 C]-serotonin. Malondialdehyde formation induced by AA was determined as described in Huzoor-Akar et al., Biochem Pharmacol., 30: 2013-2020 (1981). To study the release of AA from platelet phospholipids, washed platelets were incubated with [^3 H]-AA (3.6 mCi/10^9 platelets) for two hours at room temperature prior to the final centrifugation and resuspension of the washing procedure. Released [^3 H]-AA was quantified from supernatants of stimulated platelet samples in a manner identical to the determination of serotonin secretion.
The reactions were terminated at 4 minutes and [^3 H]-AA was sampled from platelet supernatants and analyzed as described herein. Data are averages ± S.E.M. from 3-5 donors.

[4] = system: human platelets (ADP-induced aggregation); assay: ADP-induced human platelet aggregation (turbidometric, secondary aggregation); type: cell-based; conditions: for rank order of potency, aggregation and serotonin secretory responses to ADP and AA: aggregation and serotonin secretion together; for IC50: Homo sapiens, Platelet, inhibitor 1 min before ADP (1-5 uM), secondary aggregation only, mean ± S.E.M., n = 3-9 donors; for fold more potent than clofibric acid as inhibitor of ADP-induced platelet activation: versus clofibric acid 1
Description: as §1, §2

[5] = system: human platelets (arachidonic acid-induced aggregation); assay: Arachidonic acid-induced human platelet aggregation (turbidometric); type: cell-based; conditions: for IC50: Homo sapiens, Platelet, inhibitor 1 min before AA (0.2-1 mM), mean ± S.E.M., n = 3-9 donors; for fold more potent inhibitor of AA-induced aggregation: implied versus clofibric acid; for antiaggregatory potency relative to clofibric acid (in words): prostaglandin-dependent pathway of platelet activation
Description: as §1, §2

[6] = system: human platelets (U46619, thromboxane A2 agonist-induced aggregation); assay: U46619-induced human platelet aggregation (turbidometric, + ASA); type: cell-based; conditions: for IC50: Homo sapiens, Platelet, inhibitor 1 min before U46619 (0.3 uM), aspirin 1 mM added, mean ± S.E.M., n = 3-9 donors
Description: as §1, §2

[7] = system: human platelets (AA-induced MDA formation); assay: AA-induced malondialdehyde (MDA) formation; type: cell-based; conditions: Platelet, mean+S.E., N=3-5
Description: as §3, with “The platelet count was adjusted to 3×10^8 /ml for aggregation, secretion and biochemical studies.” left out
Platelet aggregation studies were performed according to the turbidometric method of Born, as described in Nature, 194: 927-929 (1962), in a Payton Model 600 dual channel aggregometer interfaced to an Apple microcomputer for acquistion, quantitation, presentation, and management of platelet aggregation data, as described in Huzoor-Akbar, et al., 32 Thromb. […] Secretion of the contests of platelet dense granules was measured by monitoring the release of radioactivity from platelets prelabeled with [^14 C]-serotonin. Malondialdehyde formation induced by AA was determined as described in Huzoor-Akar et al., Biochem Pharmacol., 30: 2013-2020 (1981). […]

[8] = system: human platelets (U46619-induced serotonin secretion); assay: U46619-induced [14C]-serotonin secretion (+ ASA); type: cell-based; conditions: for IC50: Homo sapiens, Platelet, inhibitor 1 min before U46619 (0.3 uM), aspirin 1 mM added, mean ± S.E.M., n = 3-9 donors; for fold more potent than clofibric acid as inhibitor of U46619-evoked serotonin secretion: versus clofibric acid 1
Description: as §1, §2

[9] = system: hyper-aggregatory responses to inducers of the prostaglandin-dependent pathway; conditions: hyperlipidemic patients; Vargaftig et al. (1981); cited from earlier work
[10] = system: human platelets (collagen-induced aggregation); conditions: literature; cited from earlier work
[11] = system: human platelets (collagen-induced serotonin secretion); conditions: Witiak et al., J. Med Chem. 25: 90 (1982); cited from earlier work

Row | SMILES | rank order of inhibitory potency, AA-induced serotonin secretion [1] | IC50 [1] [µM] | IC50 [2] [µM] | rank order of inhibitory potency, thrombin-induced AA release [3] | IC50 [3] [mM] | inhibition of AA release (in words) [3] | inhibition of (secondary wave of) ADP-induced aggregation (in words) [4] | rank order of potency, aggregation and serotonin secretory responses to ADP and AA [4] | IC50 [4] [µM] | fold more potent than clofibric acid as inhibitor of ADP-induced platelet activation [4] | inhibition of AA-induced aggregation (in words) [5] | rank order of inhibitory potency, AA-induced aggregation [5] | IC50 [5] [µM] | fold more potent inhibitor of AA-induced aggregation [5] | antiaggregatory potency relative to clofibric acid (in words) [5] | inhibition of U46619-induced aggregation/responses (in words) [6] | IC50 [6] [mM] | rank order of inhibitory potency against U46619-induced serotonin secretion [8] | IC50 [8] [mM] | fold more potent than clofibric acid as inhibitor of U46619-evoked serotonin secretion [8] | further results
1 | O=C(O)C1Cc2cc(Cl)ccc2O1 (stereo not drawn) [compound X, 5-chloro-2,3-dihydrobenzofuran-2-carboxylic acid] | IX>X>1 | 1010 ± 142 | 419 ± 90 | IX>>X=1; also recorded: IX>1=X | 3.87 | blocks the release and subsequent metabolism of AA | concentration-dependent inhibition | benzopyranone analogue>2,3-dihydrobenzofuran analog>clofibric acid | 533 ± 71 | about 2 fold | concentration-dependent inhibition | IX>X>1 | 851 ± 85 | approximately 4 fold | more potent antiaggregatory agents than clofibric acid | antagonizes the proaggregatory actions of the thromboxane A2 agonist U46619; also recorded: concentration-dependent inhibitors of U46619-induced aggregation | 1.48 ± 0.277 | dihydrobenzofuran>benzopyranone>clofibric acid | 1.44 ± 0.239 | about 2 fold | IC50 [7]: 908 ± 137 µM
2 | CCOC(=O)C(C)(C)Oc1ccc(Cl)cc1 [clofibrate] | – | – | – | – | – | – | – | – | – | – | – | – | – | – | – | – | – | – | – | – | effect of therapy on hyper-aggregatory responses (in words) [9]: reverses the hyper-aggregatory responses to inducers of the prostaglandin-dependent pathway
3 | O=c1oc2ccc(Cl)cc2c(O)c1O [compound IX, 6-chloro-3,4-dihydroxy-2H-1-benzopyran-2-one] | IX>X>1 | 814 ± 90 | 466 ± 90 | IX>>X=1; also recorded: IX>1=X | 0.432 | blocks AA release from platelet membrane phospholipids; also recorded: potent inhibitor of thrombin-induced AA release | potent inhibitor of thrombin-induced AA release and ADP- or AA-induced aggregation; also recorded: concentration-dependent inhibition | benzopyranone analogue>2,3-dihydrobenzofuran analog>clofibric acid | 363 ± 159 | about 2 fold | potent inhibitor of thrombin-induced AA release and ADP- or AA-induced aggregation; also recorded: concentration-dependent inhibition | IX>X>1 | 739 ± 86 | approximately 4 fold | more potent antiaggregatory agents than clofibric acid | inhibits U46619-induced responses in human platelets; also recorded: concentration-dependent inhibitors of U46619-induced aggregation | 1.5 ± 0.16 | dihydrobenzofuran>benzopyranone>clofibric acid | 2.38 ± 0.394 | about 2 fold | inhibition of AA metabolism (in words) ([5]; inferred from AA-mediated versus U46619 responses): acts as an inhibitor of AA metabolism
4 | O=C1OC(c2ccc(Cl)cc2)C(O)=C1O (stereo not drawn) [compound 2, 2-hydroxytetronic acid aci-reductone] | – | – | – | – | – | – | – | – | – | – | – | – | – | – | – | – | – | – | – | – | inhibition of collagen-induced human platelet aggregation/activation (in words) [10]: inhibit collagen-inducedhuman platelet aggregation; inhibition of collagen-induced secretion of [14C]-serotonin (in words) [11]: in a concentration-dependent manner at equivalent doses
